In brackets after ≈: the same amount, converted by molar mass. Residues, ends and D or L forms follow the SMILES beside them. *: point of attachment. X1 = CC1(C(=O)*)CCC2(C)CCC3(C)C(=CC(=O)C4C5(C)CCC(O)C(C)(C)C5CCC43C)C2C1
Legend:
[1] = test system: human breast MCF-7 cancer cell line; test: MTT cytotoxicity assay, breast MCF-7 cancer cell line; assay type: cell-based; conditions: for cytotoxicity percentage: MCF-7, 10 µg/mL; for IC50: Homo sapiens, MCF7, MTT, mean of three replicates, read-out: IC50 (µg/mL) ± SD MCF-7
Procedure: (§1) Accordingly, all the newly synthesized GA-based peptides except 1 and 6 were screened for their cytotoxicity against three different human cancer cell lines: MCF-7, HCT-116, and HepG-2 cell lines at different concentrations (10, 5, 2.5, 1.25, and 0.625 µg/mL).
(§2) Human breast MCF-7, colon HCT-116, and liver HepG-2 carcinoma cell line were taken from Vacsera (Giza, Egypt). The culture was retained in RPMI 1640 medium with 1% antibiotic–antimycotic mixture (25 μg/mL amphotericin B, 10,000 μg/mL streptomycin sulfate, and 10,000 U/mL potassium penicillin), 1% L-glutamine, and complemented by 10% heat inactivated fetal bovine serum. […] This experiment was carried out according to the reported MTT assay method, and the absorbance was measured at 595 nm.

[2] = test system: human colon HCT-116 cancer cell line; test: MTT cytotoxicity assay, colon HCT-116 cancer cell line; conditions: for IC50: Homo sapiens, HCT-116, read-out: IC50 (µg/mL) ± SD HCT-116
Procedure: as §1, §2

[3] = test system: human normal skin fibroblasts cell line BJ-1; test: Cytotoxicity against normal skin fibroblasts BJ-1; assay type: cell-based; conditions: BJ-1, 10 µg/mL
Procedure: The frequency and severity of side effects to normal cells at therapeutic levels is one of the most critical factors that distinguish different anticancer drugs from each other. Accordingly, the GA peptides 1–8 were furthermore screened for their cytotoxicity at 10 µg/mL against the human normal skin fibroblasts cell line BJ-1 to determine their safety upon normal cells (Figure 4).

[4] = test system: Streptococcus pneumonia RCMB 010010; test: Well diffusion assay, Streptococcus pneumonia; assay type: cell-based; conditions: Streptococcus pneumonia RCMB 010010, well diffusion
Procedure: (§3) The newly synthesized peptides 1–8 (compound 6 was not tested) was evaluated for their antimicrobial activity of against three pathogenic Gram-positive bacteria (Staphylococcus aureus ATCC25923, Streptococcus pneumoniaRCMB 010010, and Micrococcus Luteus), three pathogenic Gram-negative bacteria viz. Escherichia coli ATCC25922, Pseudomonas aeruginosa ATCC7853, and Proteus vulgaris RCMB 010085, and the yeast Candida albicans using the well diffusion method. […] The obtained data were documented for each derivative as the average diameter of the inhibition zones (IZ) in mm for the bacterial or the yeast growth around the discs (Table 2). […] Although Micrococcus Luteus bacteria is a normal commensal of human skin and the upper respiratory tract, it acts as an opportunistic pathogen and has been associated with various diseases including meningitis, septic arthritis, and endocarditis. […] Antimicrobial activity of the tested chemical peptides was determined by the well diffusion method for pathogenic bacteria having Gram-positive bacteria (Staphylococcus aureus ATCC25923, Streptococcus pneumonia, and Micrococcus luteus) and Gram-negative bacteria (Escherichia coli ATCC25922, Pseudomonas aeruginosa ATCC7853, and Proteus sp.) and Candida albicans as human pathogen yeast using the well diffusion method.

[5] = test system: Staphylococcus aureus ATCC25923; test: Well diffusion assay, Staphylococcus aureus; assay type: cell-based
Procedure: as §3

[6] = test system: Micrococcus Luteus; test: Well diffusion assay, Micrococcus Luteus; assay type: cell-based
Procedure: as §3

[7] = test system: Escherichia coli ATCC25922; test: Well diffusion assay, Escherichia coli; assay type: cell-based
Procedure: as §3

[8] = test system: Pseudomonas aeruginosa ATCC7853; test: Well diffusion assay, Pseudomonas aeruginosa; assay type: cell-based
Procedure: as §3

[9] = test system: Proteus vulgaris RCMB 010085; test: Well diffusion assay, Proteus vulgaris; assay type: cell-based; conditions: Proteus vulgaris RCMB 010085, well diffusion
Procedure: as §3

[10] = test system: Candida albicans; test: Well diffusion assay, Candida albicans; assay type: cell-based
Procedure: as §3

[11] = test system: human liver cancer (HepG-2) cell line; test: MTT cytotoxicity assay, liver HepG-2 cancer cell line; assay type: cell-based
Procedure: as §1, §2

SMILES	cytotoxicity percentage [1]	cytotoxicity percentage ([2]; HCT-116, 10 µg/mL)	cytotoxic effect on normal cells BJ-1 [3]	Diameter of Inhibition Zone (mm) [4]	Diameter of Inhibition Zone (mm) [5]	Diameter of Inhibition Zone (mm) [6]	Diameter of Inhibition Zone (mm) [7]	Diameter of Inhibition Zone (mm) [8]	melting point	IC50 [1]	IC50 [2]	Diameter of Inhibition Zone (mm) [9]	Diameter of Inhibition Zone (mm) [10]	cytotoxicity percentage ([2]; human, 10 µg/mL)	cytotoxicity percentage ([11]; HepG-2, 10 µg/mL)	IC50 ([11]; Homo sapiens, HepG2, MTT, mean of three replicates, read-out: IC50 (µg/mL) ± SD HepG-2)
CCOC(=O)CNC(=O)CNC(=O)C1(C)CCC2(C)CCC3(C)C(=CC(=O)C4C5(C)CCC(O)C(C)(C)C5CCC43C)C2C1 (stereo not drawn) [Compound 1, Ethyl 2-(2-(10-Hydroxy-2,4a,6a,6b,9,9,12a-heptamethyl-13-oxo-1,2,3,4,4a,5,6,6a,6b,7,8,8a,9,10,11,12,12a,12b,13,14b-icosahydropicene-2-carboxamido)acetamido)acetate]	65.3%	weak effect	7%	15 ± 0.16 mm	15 ± 0.16 mm	30 ± 0.21 mm	20 ± 0.25 mm	18 ± 0.15 mm	160 to 162 °C	–	–	–	–	–	–	–
CCCC(NC(=O)C(CC(C)C)NC(=O)OC(C)(C)C)C(=O)OC1CCC2(C)C(CCC3(C)C2C(=O)C=C2C4CC(C)(C(=O)NCC(=O)NCC(=O)OCC)CCC4(C)CCC23C)C1(C)C (stereo not drawn) [Compound 2, 11-(2-(2-Ethoxy-2-oxoethylamino)-2-oxoethylcarbamoyl)-4,4,6a,6b,8a,11,14b-heptamethyl-14-oxo-1,2,3,4,4a,5,6,6a,6b,7,8,8a,9,10,11,12,12a,14,14a,14b-icosahydropicen-3-yl 2-(2-(tert-Butoxycarbonylamino)-4-methylpentanamido)pentanoate]	–	92.63%	–	12 ± 0.82 mm	17 ± 0.11 mm	30 ± 0.13 mm	18 ± 0.14 mm	15 ± 0.25 mm	169 to 171 °C	7.7 ± 1.3 µg/mL (≈ 8.32 µM)	70.3 ± 0.9 µg/mL (≈ 76 µM)	–	–	–	–	–
CC1(C(=O)NCC(=O)NCC(=O)O)CCC2(C)CCC3(C)C(=CC(=O)C4C5(C)CCC(O)C(C)(C)C5CCC43C)C2C1 (stereo not drawn) [Compound 3, 2-(2-(10-Hydroxy-2,4a,6a,6b,9,9,12a-heptamethyl-13-oxo-1,2,3,4,4a,5,6,6a,6b,7,8,8a,9,10,11,12,12a,12b,13,14b-icosahydropicene-2-carboxamido)acetamido)acetic acid]	–	97.66%	2%	17 ± 0.21 mm	17 ± 0.32 mm	30 ± 0.25 mm	16 ± 0.31 mm	15 ± 0.18 mm	207 to 209 °C	5.1 ± 0.7 µg/mL (≈ 8.72 µM)	7.4 ± 0.4 µg/mL (≈ 12.7 µM)	17 ± 0.17 mm	12 ± 0.23 mm	–	–	–
CCOC(=O)CNC(=O)CNC(=O)CNC(=O)CNC(=O)C1(C)CCC2(C)CCC3(C)C(=CC(=O)C4C5(C)CCC(O)C(C)(C)C5CCC43C)C2C1 (stereo not drawn) [Compound 4, Ethyl 1-(10-Hydroxy-2,4a,6a,6b,9,9,12a-heptamethyl-13-oxo-1,2,3,4,4a,5,6,6a,6b,7,8,8a,9,10,11,12,12a,12b,13,14b-icosahydropicen-2-yl)-1,4,7,10-tetraoxo-2,5,8,11-tetraazatridecan-13-oate] (X1-GGGG-OEt)	–	–	–	11 ± 0.24 mm	10 ± 0.13 mm	29 ± 0.13 mm	13 ± 0.15 mm	13 ± 0.16 mm	130 to 133 °C	6.1 ± 0.4 µg/mL (≈ 8.39 µM)	73 ± 1.4 µg/mL (≈ 100 µM)	12 ± 0.23 mm	15 ± 0.12 mm	84.80%	–	–
COC(=O)C(CC(C)C)NC(=O)CNC(=O)CNC(=O)C1(C)CCC2(C)CCC3(C)C(=CC(=O)C4C5(C)CCC(O)C(C)(C)C5CCC43C)C2C1 (stereo not drawn) [Compound 6, Methyl 2-(2-(2-(10-Hydroxy-2,4a,6a,6b,9,9,12a-heptamethyl-13-oxo-1,2,3,4,4a,5,6,6a,6b,7,8,8a,9,10,11,12,12a,12b,13,14b-icosahydropicene-2-carboxamido)acetamido)acetamido)-4-methylpentanoate]	weak cytotoxic effect	weak effect	–	–	–	–	–	–	170 to 172 °C	–	–	–	–	–	–	–
CC(C)CC(NC(=O)CNC(=O)CNC(=O)C1(C)CCC2(C)CCC3(C)C(=CC(=O)C4C5(C)CCC(O)C(C)(C)C5CCC43C)C2C1)C(=O)O (stereo not drawn) [Compound 7, 2-(2-(2-(10-Hydroxy-2,4a, 6a, 6b, 9,9, 12a-heptamethyl-13-oxo-1,2,3,4,4a, 5,6,6a, 6b, 7,8,8a, 9, 10, 11, 12, 12a, 12b, 13, 14b-icosahydropicene-2-carboxamido)acetamido)acetamido)-4-methylpentanoic Acid]	–	98.06%	–	–	–	30 ± 0.11 mm	15 ± 0.21 mm	13 ± 0.14 mm	210 to 212 °C	3.7 ± 0.2 µg/mL (≈ 5.3 µM)	3 ± 1.1 µg/mL (≈ 4.3 µM)	12 ± 0.14 mm	–	–	96.76%	3.3 ± 0.1 µg/mL (≈ 4.73 µM)
COC(=O)C(CC(C)C)NC(=O)CNC(=O)CNC(=O)C1(C)CCC2(C)CCC3(C)C(=CC(=O)C4C5(C)CCC(OC(=O)CNC(=O)CNC(=O)OC(C)(C)C)C(C)(C)C5CCC43C)C2C1 (stereo not drawn) [Compound 8, Methyl 2-(2-(2-(10-(2-(2-(Tert-butoxycarbonylamino)acetamido)acetoxy)-2,4a,6a,6b,9,9,12a-heptamethyl-13-oxo-1,2,3,4,4a,5,6,6a,6b,7,8,8a,9,10,11,12,12a,12b,13,14b-icosahydropicene-2-carboxamido)acetamido)acetamido)-4-methylpentanoate]	–	97.10%	–	12 ± 0.22 mm	13 ± 0.24 mm	30 ± 0.17 mm	15 ± 0.16 mm	14 ± 0.16 mm	–	6.9 ± 1.1 µg/mL (≈ 7.45 µM)	60.7 ± 0.6 µg/mL (≈ 65.5 µM)	–	–	–	–	–
CNC(C)C1CCC(N)C(OC2C(N)CC(N)C(OC3OCC(C)(O)C(NC)C3O)C2O)O1 (stereo not drawn) [GM, gentamicin, reference compound]	–	–	–	27.2 ± 0.80 mm	25.4 ± 0.18 mm	24.4 ± 0.72 mm	26.3 ± 0.15 mm	24.41 ± 0.18 mm	–	–	–	20.0 ± 0.30 mm	–	–	–	–
CC(=O)N1CCN(c2ccc(OCC3COC(Cn4ccnc4)(c4ccc(Cl)cc4Cl)O3)cc2)CC1 (stereo not drawn) [KC, ketoconazole, reference compound]	–	–	–	–	–	–	–	–	–	–	–	–	22.8 ± 0.10 mm	–	–	–
